Toxic doses and inconclusive results are not listed. No stated cut-off is given here; in the data, active means T/C of 150% or more; inactive means T/C below 125%.
Test system: L1210 leukemia ip in BDF1 mice, survival T/C
Experiment: NCI In Vivo Anticancer Drug Screen. Data for tumor model L1210 Leukemia (intraperitoneal) in B6D2F1 (BDF1) mice
Details: endpoint: mean survival time, higher = longer survival
How it was run: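 Tumor cells were implanted, animals were treated, and survival was followed. The result divides the treated measurement by the vehicle-control measurement.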

[1] = dose: 100.0 mg/kg/injection, schedule: Q04DX003 (ip), vehicle: saline
[2] = dose: 200.0 mg/kg/injection, schedule: Q04DX003 (ip), vehicle: saline
[3] = dose: 400.0 mg/kg/injection, schedule: Q04DX003 (ip), vehicle: saline
[4] = dose: 100.0 mg/kg/injection, schedule: Q04DX003 (ip), vehicle: Klucel (hydroxypropylcellulose) (HPC)
[5] = dose: 200.0 mg/kg/injection, schedule: Q04DX003 (ip), vehicle: Klucel (hydroxypropylcellulose) (HPC)
[6] = dose: 400.0 mg/kg/injection, schedule: Q04DX003 (ip), vehicle: Klucel (hydroxypropylcellulose) (HPC)
[7] = dose: 100.0 mg/kg/injection, schedule: Q04DX002 (ip), vehicle: Klucel (hydroxypropylcellulose) (HPC)
[8] = dose: 200.0 mg/kg/injection, schedule: Q04DX002 (ip), vehicle: Klucel (hydroxypropylcellulose) (HPC)
[9] = dose: 400.0 mg/kg/injection, schedule: Q04DX002 (ip), vehicle: Klucel (hydroxypropylcellulose) (HPC)
[10] = dose: 25.0 mg/kg/injection, schedule: Q04DX002 (ip), vehicle: Klucel (hydroxypropylcellulose) (HPC)
[11] = dose: 50.0 mg/kg/injection, schedule: Q04DX002 (ip), vehicle: Klucel (hydroxypropylcellulose) (HPC)
[12] = dose: 50.0 mg/kg/injection, schedule: Q01DX001 (ip), vehicle: carboxymethylcellulose (CMC)
[13] = dose: 100.0 mg/kg/injection, schedule: Q01DX001 (ip), vehicle: carboxymethylcellulose (CMC)
[14] = dose: 200.0 mg/kg/injection, schedule: Q01DX001 (ip), vehicle: carboxymethylcellulose (CMC)
[15] = dose: 400.0 mg/kg/injection, schedule: Q01DX001 (ip), vehicle: carboxymethylcellulose (CMC)

Measured: T/C

CCOP(=O)(CSCC)OCC
inactive: dose: 100.0 mg/kg/injection, schedule: Q01DX009 (ip), vehicle: saline 102 % of control | [1] 94 % of control | dose: 200.0 mg/kg/injection, schedule: Q01DX009 (ip), vehicle: saline 98 % of control | [2] 100 % of control | dose: 400.0 mg/kg/injection, schedule: Q01DX009 (ip), vehicle: saline 100 % of control | [3] 92 % of control

Brc1nnnn1-c1ccccc1
inactive: dose: 100.0 mg/kg/injection, schedule: Q01DX009 (ip), vehicle: Klucel (hydroxypropylcellulose) (HPC) 99 % of control | [4] 97 % of control | dose: 200.0 mg/kg/injection, schedule: Q01DX009 (ip), vehicle: Klucel (hydroxypropylcellulose) (HPC) 98 % of control | [5] 108 % of control | dose: 400.0 mg/kg/injection, schedule: Q01DX009 (ip), vehicle: Klucel (hydroxypropylcellulose) (HPC) 96 % of control | [6] 94 % of control

O=C(Cn1ccc(O)cc1=O)N1CCOCC1
inactive: dose: 100.0 mg/kg/injection, schedule: Q01DX009 (ip), vehicle: water 105 % of control | dose: 100.0 mg/kg/injection, schedule: Q04DX003 (ip), vehicle: water 101 % of control | dose: 200.0 mg/kg/injection, schedule: Q01DX009 (ip), vehicle: water 100 % of control | dose: 200.0 mg/kg/injection, schedule: Q04DX003 (ip), vehicle: water 106 % of control | dose: 400.0 mg/kg/injection, schedule: Q01DX009 (ip), vehicle: water 103 % of control | dose: 400.0 mg/kg/injection, schedule: Q04DX003 (ip), vehicle: water 94 % of control

O=C1C(=O)c2ccccc2C(O)=C1Nc1ccc(Cl)cc1
inactive: dose: 100.0 mg/kg/injection, schedule: Q01DX001 (ip), vehicle: saline 94 % of control | dose: 200.0 mg/kg/injection, schedule: Q01DX001 (ip), vehicle: saline 93 % of control | dose: 400.0 mg/kg/injection, schedule: Q01DX001 (ip), vehicle: saline 93 % of control

CCc1ccc(/C=C\c2ccc(O)c(O)c2)[n+](C)c1
inactive: dose: 15.0 mg/kg/injection, schedule: Q01DX001 (ip), vehicle: saline 87 % of control | dose: 30.0 mg/kg/injection, schedule: Q01DX001 (ip), vehicle: saline 89 % of control

COC(=O)c1cc(Cl)cc(NC(C)=O)c1Cl
inactive: [7] 97 % of control | [8] 97 % of control | [9] 97 % of control

O=C(O)CCC1CCC(=O)NC1=O (configuration not stated)
inactive: [10] 95 % of control | [11] 101 % of control | [7] 89 % of control | [8] 103 % of control | [9] 88 % of control

COc1ccccc1CN1CCCN(Cc2ccccc2OC)C1c1cccc(F)c1
inactive: [12] 112 % of control | [13] 108 % of control | [14] 108 % of control | [15] 102 % of control

CC(=O)OCCC#CCCCO
inactive: dose: 100.0 mg/kg/injection, schedule: Q01DX009 (ip), vehicle: saline with Tween-80 90 % of control | dose: 200.0 mg/kg/injection, schedule: Q01DX009 (ip), vehicle: saline with Tween-80 98 % of control | dose: 400.0 mg/kg/injection, schedule: Q01DX009 (ip), vehicle: saline with Tween-80 97 % of control

Cc1cc(C)c2c(c1)NP(=S)(c1ccccc1)N2 (configuration not stated)
inactive: dose: 75.0 mg/kg/injection, schedule: Q04DX002 (ip), vehicle: gum acacia 93 % of control | dose: 150.0 mg/kg/injection, schedule: Q04DX002 (ip), vehicle: gum acacia 93 % of control | dose: 300.0 mg/kg/injection, schedule: Q04DX002 (ip), vehicle: gum acacia 93 % of control

CC(=O)CCC(C)N=Cc1ccc(N(C)C)cc1 (configuration not stated)
inactive: [1] 92 % of control | [2] 91 % of control | [3] 89 % of control

CCOC(=O)/C(C#N)=C/c1cccn1Cc1cc(OC)c(OC)cc1[N+](=O)[O-]
inactive: [10] 110 % of control | [11] 89 % of control | [7] 96 % of control

CCC(C)(CC)c1ccc(O)c(C)c1
inactive: dose: 100.0 mg/kg/injection, schedule: Q01DX009 (sc), vehicle: olive oil, sesame oil, peanut oil 104 % of control | dose: 100.0 mg/kg/injection, schedule: Q04DX003 (sc), vehicle: olive oil, sesame oil, peanut oil 104 % of control | dose: 200.0 mg/kg/injection, schedule: Q01DX009 (sc), vehicle: olive oil, sesame oil, peanut oil 112 % of control | dose: 200.0 mg/kg/injection, schedule: Q04DX003 (sc), vehicle: olive oil, sesame oil, peanut oil 106 % of control | dose: 400.0 mg/kg/injection, schedule: Q01DX009 (sc), vehicle: olive oil, sesame oil, peanut oil 101 % of control | dose: 400.0 mg/kg/injection, schedule: Q04DX003 (sc), vehicle: olive oil, sesame oil, peanut oil 108 % of control

CCC12CCCN3C(=O)CC(C(=O)CC1)C32 (configuration not stated)
inactive: [1] 107 % of control

C=CC1CC=CCC1 (configuration not stated) (tested in a mixture with another compound)
inactive: [12] 98 % of control | [13] 98 % of control | [14] 98 % of control | [15] 108 % of control

Cn1c(N)c(C=O)c(=O)n(C)c1=O
inactive: dose: 12.5 mg/kg/injection, schedule: Q04DX003 (ip), vehicle: Klucel (hydroxypropylcellulose) (HPC) 95 % of control | dose: 25.0 mg/kg/injection, schedule: Q04DX003 (ip), vehicle: Klucel (hydroxypropylcellulose) (HPC) 105 % of control | dose: 50.0 mg/kg/injection, schedule: Q04DX003 (ip), vehicle: Klucel (hydroxypropylcellulose) (HPC) 96 % of control

CN(CCOS(=O)(=O)O)CCOS(=O)(=O)O
inactive: dose: 37.5 mg/kg/injection, schedule: Q01DX009 (ip), vehicle: saline 98 % of control | dose: 75.0 mg/kg/injection, schedule: Q01DX009 (ip), vehicle: saline 98 % of control | dose: 75.0 mg/kg/injection, schedule: Q04DX003 (ip), vehicle: saline 102 % of control | dose: 150.0 mg/kg/injection, schedule: Q01DX009 (ip), vehicle: saline 95 % of control | dose: 150.0 mg/kg/injection, schedule: Q04DX003 (ip), vehicle: saline 100 % of control | dose: 300.0 mg/kg/injection, schedule: Q04DX003 (ip), vehicle: saline 96 % of control

O=C(Nc1ccccc1F)Nc1cc(Cl)ccc1Cl
inactive: dose: 100.0 mg/kg/injection, schedule: Q01DX009 (ip), vehicle: saline sonified 91 % of control | [4] 89 % of control | dose: 200.0 mg/kg/injection, schedule: Q01DX009 (ip), vehicle: saline sonified 93 % of control | [5] 94 % of control | dose: 400.0 mg/kg/injection, schedule: Q01DX009 (ip), vehicle: saline sonified 93 % of control | [6] 86 % of control

CC(C)NNC(=O)c1ccccc1
inactive: dose: 25.0 mg/kg/injection, schedule: Q04DX002 (ip), vehicle: saline 109 % of control | dose: 50.0 mg/kg/injection, schedule: Q04DX002 (ip), vehicle: saline 120 % of control | dose: 100.0 mg/kg/injection, schedule: Q04DX002 (ip), vehicle: saline 109 % of control

CC(C)C(CN)(CCCCN1CCCC1)c1cccc2ccccc12 (configuration not stated)
inactive: dose: 12.5 mg/kg/injection, schedule: Q04DX003 (ip), vehicle: saline 96 % of control | dose: 25.0 mg/kg/injection, schedule: Q04DX003 (ip), vehicle: saline 93 % of control | dose: 50.0 mg/kg/injection, schedule: Q04DX003 (ip), vehicle: saline 96 % of control

COC(=O)CCc1ccc(OC)cc1
inactive: dose: 100.0 mg/kg/injection, schedule: Q04DX003 (ip), vehicle: other 100 % of control | dose: 200.0 mg/kg/injection, schedule: Q04DX003 (ip), vehicle: other 99 % of control | dose: 400.0 mg/kg/injection, schedule: Q04DX003 (ip), vehicle: other 106 % of control

Source: PubChem BioAssay AID248 (DTP/NCI, 2004)
